Assay results reported in paper PMC7098565 (PLoS ONE, 2020).
Several values for one entry are separate records, joined by “and”; a condition that tells them apart may be missing. Identical values can stand only once. Like-named read-outs stand apart in the source and are kept apart here.

Columns and labels:
[1] = tested on: Human CD3+ cells; experiment: Cytotoxicity to human CD3+ cells, CellTiter-Glo (CTG) assay; type: cell-based; settings: 72 h, aCD3/aCD28 1 μg/mL, mean ± S.D (n = 3)
Procedure: Human CD3^+ cells with the purity above 95% were provided by LDEBIO company (Guangzhou, China). CD3^+ cells were plated in the 96-well plate with a density of 1 × 10^5 cells/well in 100 μL of DMEM medium containing 10% FBS. The 50 μL of anti-CD3 antibody and anti-CD28 antibody (aCD3 and aCD28, final concentration of 1 μg/mL for each) were added into 96-well plate. […] CellTiter-Glo (CTG) reagent was added into the wells to measure CD3^+ cell viability.

[2] = tested on: B16-F10 tumors; experiment: B16-F10 tumor isograft model, tumor growth; type: in vivo, mice; settings: for Tumor volume / Tumor weight: single mice
[3] = tested on: Human CD3+ cells; experiment: IFN-γ secretion by human CD3+ cells in vitro (ELISA), rescue of PD-L1-mediated inhibition; type: cell-based; settings: for IFN-γl: aCD3/aCD28 1 μg/mL + PD-L1 protein 10 nM, 72 h, single samples
Procedure: Human CD3^+ cells were plated in the 96-well plate with a density of 1 × 10^5 cells/well in 100 μL of DMEM containing 10% FBS. The 50 μL of aCD3 and aCD28 (final concentration of 1 μg/mL for each) were added into 96-well plate without or with 50 μL of human PD-L1 protein (final concentation of 10 nM). […] The supernatants were collected for detection of IFN-γ by using human IFN-γ ELISA Kit.

[4] = Pharmacokinetics in plasma and tumor from melanoma-bearing mice (LC-MS/MS); type: in vivo; settings: single oral dose 60 mg/kg; for concentration at 1 h / concentration at 3 h: male, C57BL/6NCrl, mouse, plasma, po; for concentration at 1 h / concentration at 3 h / Concentration in Tumor: 60 mg/kg
Procedure: At 1h, 3h and 8h after the dosing, 5 mice were decapitated, respectively, for collecting plasma and tumor tissues. All plasma samples were centrifuged for 10 min at 3000 g, separated and stored at -20 °C for followed analysis. The tumor tissues were homogenated in water (w/v = 1:4). The LC-MS/MS system consisted of an Agilent 1100 series HPLC system (Agilent Technologies, Waldbronn, USA) and a TSQ Quantum Assess tandem mass spectrometer (Thermo Electron Corporation, San Jose, CA, USA) equipped with ESI ion source operation in the positive mode. Data acquisition and processing were accomplished using the Xcaliber workstation. The chromatography separation was performed on a Waters symmetry CLU columns (150 × 2.1 mm i.e., 3.5 am, Warders, USA) with the flow rate of 0.2 ml/min in isocratic elution. The mobile phase consisted of acetonitrile-methanol-water (50:30:20, v/v/v) containing 0.1 mm ammonium acetate and 0.01% glacial acetic acid. The selective reactions monitoring mode was used to detect the analyses. […] The spray voltage was 4 kv. Sheath gas and auxilinry gas were 30 and 5 psi, respectively. The capillary temperature was 350 °C and argon gas pressure was 1.5 milli-Torr.

[5] = target: PD-1 and PD-L1 binding; set-up: method as in PMID 27083005; settings: HTRF binding assay; cited from earlier work
[6] = tested on: B16-F10; experiment: Cytotoxicity to tumor cells, MTT assay; type: cell-based; settings: Mus musculus, 24 h, mean ± S.D (n = 3), read-out: IC50 B16F10
[7] = tested on: IFN-γ; experiment: Plasma IFN-γ level in melanoma-bearing mice (ELISA); type: in vivo
[8] = tested on: CT26.WT; experiment: Cytotoxicity to tumor cells, MTT assay; type: cell-based; settings: Mus musculus, mean ± S.D (n = 3)
Procedure: Mouse melanoma cell line B16-F10 (ATCC® Number: CRL-6475™) and mouse cell line CT26.WT (TCM37) were obtained from Cell Culture Center of the Institute of Basic Medical Sciences, Chinese Academy of Medical Sciences. The cells were maintained in DMEM supplemented with 10% (v/v) heat-inactivated fetal bovine serum (FBS) in a humidified 5% CO2 atmosphere at 37 °C. Tumor cells were plated in 96-well plate with a density of 5 × 10^3 cells/well in 100 μL. […] The medium was subsequently discarded, and 150 μL of DMSO was added to dissolve the formazan crystals. The absorbance was measured at 570 nm using a Molecular Devices Spectra Max M5 (Molecular Devices, USA).

[9] = tested on: T lymphocytes in tumors; experiment: Flow cytometry of T lymphocytes in tumors from melanoma-bearing mice; type: in vivo; settings: for % Treg of CD4^+ / % CD3^+ of lymphocyte / % CD4^+ of CD3^+ / % CD8^+ of CD3^+ / % CD8^+IFN-γ of CD3D^+CD8^+: tumor, day 20, single mice; for % Treg of CD4^+: Treg = CD4+CD25+CD127low/-
[10] = 30 mg/kg oral twice daily, day 20
[11] = treatment groups (30 and 60 mg/kg), P < 0.05, n = 6

## COc1nc(OCc2cccc(-c3ccccc3)c2C)ccc1CNCCNC(C)=O [PCC0208025, N-(2-{[2-Methoxy-6-(2-methyl-biphenyl-3-ylmethoxy)-pyridin-3-ylmethyl]-amino}-ethyl)-acetamide]
[1]
  IC50: 10.3 ± 1.3 µM
[2]; 30 mg/kg and 60 mg/kg, P < 0.05, n = 8
  tumor weight compared with the control group: significantly decreased
[2]; 30 mg/kg and 60 mg/kg, day 20, P < 0.05, n = 8
  tumor volumes compared with the control group: significantly decreased
[2]; 30 mg/kg oral twice daily, day 7
  Tumor volume: 99.3 mm^3 and 102.9 mm^3 and 86.2 mm^3 and 112.1 mm^3 and 129.3 mm^3 and 84.9 mm^3 and 90.7 mm^3 and 100.1 mm^3
[2]; 30 mg/kg oral twice daily, day 9
  Tumor volume: 94.0 mm^3 and 102.4 mm^3 and 154.1 mm^3 and 112.8 mm^3 and 131.0 mm^3 and 131.8 mm^3 and 105.3 mm^3 and 143.3 mm^3
[2]; [10]
  Tumor volume: 898.0 mm^3 and 1417.3 mm^3 and 1288.9 mm^3 and 1376.0 mm^3 and 1578.0 mm^3 and 1342.0 mm^3 and 1122.6 mm^3 and 879.0 mm^3
  Tumor weight: 1578.0 mg
[2]; 60 mg/kg oral gavage twice daily, day 20
  IR (inhibition rate of tumor growth) according to tumor weight: 50.1%
[2]; 60 mg/kg oral twice daily, day 7
  Tumor volume: 88.0 mm^3 and 80.2 mm^3 and 120.2 mm^3 and 108.0 mm^3 and 102.8 mm^3 and 96.6 mm^3 and 115.1 mm^3 and 94.6 mm^3
[2]; 60 mg/kg oral twice daily, day 20
  Tumor weight: 1678.4 mg
[3]; 0.01 to 1 μM, vs aCD3/aCD28 and PD-L1 group, P < 0.05, n = 6
  PD-L1-mediated inhibition of IFN-γ production: markedly rescued
[3]; substance 0.1 mM (so in the source)
  IFN-γl: 768.3 pg/mL and 1056.6 pg/mL and 850.5 pg/mL and 945.6 pg/mL and 689.7 pg/mL and 789.4 pg/mL
[3]; substance 1 mM (so in the source)
  IFN-γl: 798.3 pg/mL and 824.3 pg/mL and 997.0 pg/mL and 723.5 pg/mL and 908.8 pg/mL and 857.7 pg/mL
[3]; substance 10 mM (so in the source)
  IFN-γl: 468.7 pg/mL and 398.5 pg/mL and 576.3 pg/mL and 435.3 pg/mL and 587.5 pg/mL and 523.4 pg/mL
[4]; 1h, n = 5, read-out: average concentration in plasma
  concentration at 1 h: ~4.36 nM
[4]; 1h, single mice, read-out: Concentration in Plasma
  concentration at 1 h: 3.8 nM
[4]; 3h, n = 5, read-out: average concentration in plasma
  concentration at 3 h: ~3.94 nM
[4]; 3h, single mice, read-out: Concentration in Plasma
  concentration at 3 h: 4.16 nM
[4]; 1h, n = 5
  average concentration in tumor: about 160.7 nmol/kg
[4]; 1h, single mice
  Concentration in Tumor: 167.3 nmol/kg and 207.3 nmol/kg and 154.8 nmol/kg and 139.1 nmol/kg and 136.3 nmol/kg
[4]; 3h, n = 5
  average concentration in tumor: ~196.7 nmol/kg
[4]; 3h, single mice
  Concentration in Tumor: 185.3 nmol/kg and 206.5 nmol/kg and 218.5 nmol/kg and 178.7 nmol/kg
[4]; 8h, n = 5
  average concentration in tumor: ~127.3 nmol/kg
[4]; 8h, single mice
  Concentration in Tumor: 132.4 nmol/kg and 146.7 nmol/kg and 123.3 nmol/kg and 103.8 nmol/kg and 133.2 nmol/kg
[5]
  IC50: 0.018 µM
[6]
  IC50: 32.1 ± 2.3 µM
[7]; 60 mg/kg oral twice daily, day 20, single mice
  IFN-γ level in plasma: 1678.5 pg/mL and 1589.6 pg/mL and 1467.7 pg/mL and 1256.8 pg/mL and 1756.2 pg/mL and 1476.1 pg/mL
[7]; 30 and 60 mg/kg, P < 0.05, n = 6
  plasma IFN-γ levels compared with the control group: markedly elevated
[8]; 24 h
  IC50: 21.9 ± 2.9 µM
[8]; 48 h
  IC50: 15.3 ± 3.4 µM
[9]; 30 mg/kg and 60 mg/kg, P < 0.05, n = 6
  percentage of CD4^+CD25^+CD127^low/− (Treg) in tumor compared with the control group: significantly decreased
[9]; 60 mg/kg group, P < 0.05, n = 6
  percentage of CD3^+CD4^+ T cells in tumor compared with the control group: significant decreases
[9]; [11]
  percentage of CD3^+ T cells in tumor compared with the control group: markedly increased
  percentage of CD3^+CD8^+ T cells in tumor compared with the control group: markedly increased
  percentage of CD8^+IFN-γ^+ T cells in tumor compared with the control group: markedly increased
[9]; 30 mg/kg, 30 mg/kg
  % Treg of CD4^+: 26.25% and 33.66% and 35.98% and 35.44% and 36.86% and 31.41%
  % CD3^+ of lymphocyte: 58.95% and 61.13% and 52.42% and 62.48% and 58.92% and 54.72%
  % CD4^+ of CD3^+: 38.97% and 39.86% and 36.50% and 29.65% and 37.02% and 40.10%
  % CD8^+ of CD3^+: 38.80% and 39.05% and 45.77% and 42.49% and 39.23% and 36.71%
  % CD8^+IFN-γ of CD3D^+CD8^+: 27.98% and 25.40% and 24.84% and 24.39% and 22.29% and 22.23%
[9]; 60 mg/kg, 60 mg/kg
  % Treg of CD4^+: 32.63% and 30.22% and 32.76% and 31.72% and 28.26%
  % CD3^+ of lymphocyte: 72.64% and 70.58% and 61.04% and 62.21% and 61.98% and 64.77%
  % CD4^+ of CD3^+: 36.42% and 31.49% and 39.77% and 27.21% and 38.87% and 37.34%
  % CD8^+ of CD3^+: 40.72% and 50.51% and 43.82% and 50.59% and 42.04% and 42.77%
  % CD8^+IFN-γ of CD3D^+CD8^+: 30.80% and 35.94% and 30.46% and 29.24% and 28.35% and 27.49%
